According to patent US7659251B2, “Ligand for G-protein coupled receptor FPRL2” (priority 2004, dated 2010):

System: wild-type CHO-K1 cells, ChemerinR and other GPCRs
Assay: Aequorin-based assay on wild-type CHO-K1 cells and CHO-K1 cells expressing ChemerinR and other GPCRs
Type: cell-based
Settings: data not shown
Description: The human coding sequences (accession numbers AC005946, M84562 and M60626, respectively) were amplified by PCR from human genomic DNA, cloned into the pcDNA3 (Invitrogen) and pEFIN3 (Euroscreen) vectors and sequenced. The pEFIN3 constructs were transfected, using Fugene 6, into CHO-K1 cells, expressing or not Gα16 and apoaequorin. G418-resistant clones were characterized for receptor expression by Northern blotting. A functional assay based on the luminescence of mitochondrial aequorin was performed as described (42). Results were expressed as relative light units (RLU) or as the percentage of the response to 20 μM ATP.

SMILES: CC[C@H](C)[C@H](NC(=O)[C@H](CCSC)NC(=O)CNC(=O)[C@H](CC(C)C)NC(=O)[C@H](CCSC)NC(C)=O)C(=O)N[C@@H](CCCCN)C(=O)N[C@@H](CC(N)=O)C(=O)N[C@@H](CO)C(=O)N[C@@H](CC(C)C)C(=O)N[C@@H](Cc1ccccc1)C(=O)NCC(=O)N[C@@H](CO)C(=O)N[C@H](C(=O)N[C@@H](CCC(=O)O)C(=O)N[C@H](C(=O)N[C@@H](Cc1c[nH]c2ccccc12)C(=O)N1CCC[C@H]1C(=O)N[C@@H](Cc1c[nH]c2ccccc12)C(=O)N[C@@H](CCC(N)=O)C(=O)N[C@H](C(=O)N[C@@H](CC(C)C)C(=O)O)C(C)C)[C@@H](C)O)C(C)C [F2L]
- activity on all other cell lines tested: completely inactive
